The numbers were not newly measured in patent US20230226058A1, “METHODS AND COMPOSITIONS FOR TREATING ACUTE KIDNEY INJURY” (CalciMedica, Inc., priority 2020, published 2023), which cites them from elsewhere.

Each structure is given as a SMILES string.

The data set deals with AKI rats.

`Cc1nnsc1C(=O)Nc1ccc(-n2nc(C(F)(F)F)cc2C(F)(F)F)cc1` [YM58483/BPT2]: the “infiltration of total CD4+ T-cells, B-cells, and dendritic cells following I/R” value (AKI rats) is on record as “attenuated”. The “Total IL17 expressing cells” value (treated rats relative to vehicle treated rats) is recorded as “reduced”.
